Laboratory results published in patent US20060094786A1, “Treating syndrome X with substituted tetralins and indanes” (priority 2002, published 2006).

What follows are compounds tested against T1, PPARγ (Homo sapiens, UniProt P37231) (assay: aP2 Assay for PPAR Gamma Agonists (bDNA aP2 mRNA, preadipocytes)). Settings: fold induction, unbracketed values; PPARγ standard FI = 70.3.
T1 construct: Following the challenge of the preadipocytes, cells may be lysed with lysis buffer; endogenous in cells; host or cells: preadipocytes
T1 sequence (P37231 1-505): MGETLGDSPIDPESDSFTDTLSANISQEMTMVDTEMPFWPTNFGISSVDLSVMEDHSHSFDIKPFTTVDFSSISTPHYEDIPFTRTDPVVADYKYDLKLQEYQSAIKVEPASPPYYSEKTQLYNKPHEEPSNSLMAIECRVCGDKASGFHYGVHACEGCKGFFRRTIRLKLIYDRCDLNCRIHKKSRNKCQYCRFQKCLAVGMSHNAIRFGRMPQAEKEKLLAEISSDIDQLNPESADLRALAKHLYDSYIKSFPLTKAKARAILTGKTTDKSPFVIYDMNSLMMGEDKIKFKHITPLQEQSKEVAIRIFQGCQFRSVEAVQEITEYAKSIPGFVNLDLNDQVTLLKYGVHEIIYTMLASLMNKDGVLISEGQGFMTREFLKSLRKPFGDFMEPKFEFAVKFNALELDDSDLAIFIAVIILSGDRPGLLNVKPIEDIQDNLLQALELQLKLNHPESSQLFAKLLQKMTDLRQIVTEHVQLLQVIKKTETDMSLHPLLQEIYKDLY
Assay type: cell-based
Excerpt: aP2 Assay for PPAR Gamma Agonists
The procedure is described in detail in Burris et al., Molecular Endocrinology 1999, 13:410, which is hereby incorporated by reference in its entirety, and aP2 assay results of agonist intrinsic activity may be presented as fold increase over vehicle in induction of aP2 mRNA production.
Twenty-four hours after the initial seeding of the 96-well plates by hand (around 20,000/well), the differentiation assay may be initiated. Medium may be removed and replaced with 150 μl of differentiation medium containing vehicle (DMSO) or test compounds. Cells may be returned to incubator for 24 hours culture. At the termination of the challenge, medium may be removed and 100 ul of lysis buffer may be added to initiate the bDNA aP2 mRNA assay. The branched DNA assay may be performed according to the manufacturer's protocol (Bayer Diagnostics; Emeryville, Calif.). Result may be expressed as the fold increase of aP2 mRNA production activated over vehicle controls. EC50's and Emax may be determined by non-linear regression with a sigmoidal fit curve.
Following the challenge of the preadipocytes, cells may be lysed with lysis buffer (Bayer Diagnostics) containing the aP2 oligonucleotides. After a 15 minute incubation at 53° C. or 30 minutes at 37° C. incubator, 70 ul of the lysis buffer from each well may be added to a corresponding capture well (preincubated with 70 ul of blocking buffer (Bayer Diagnostics)). The capture plate may be incubated overnight at 53° C. in a plate incubator (Bayer Diagnostics). After this incubation, the bDNA and labeled probes may be annealed as directed by the manufacturer. Following a 30-minute incubation with the luminescent alkaline phosphatase substrate, dioxitane, the luminescence may be quantitated in a Dynex MLX microtiter plate luminometer. Oligonucleotide probes designed to anneal to the aP2 mRNA and function in the bDNA mRNA detection system are designed with ProbeDesigner software (Bayer Diagnostics). This software package analyzes a target sequence of interest with a series of algorithms in order to determine which regions of the sequence can perform as locations for capture, label, or spacer probe annealing. The sequences of the oligonucleotides are as follows: […]

Going from `CCN(C(=O)Nc1ccc(OC(F)(F)F)cc1)C1Cc2ccc(SC(C)(C)C(=O)O)cc2C1` (centres unmarked) [Example 2, 2-{2-[1-Ethyl-3-(4-trifluoromethoxyphenyl)ureido]indan-5-ylsulfanyl}-2-methylpropionic acid] to `CCCN(C(=O)Nc1ccc(OC(F)(F)F)cc1)C1Cc2ccc(SC(C)(C)C(=O)O)cc2C1` (centres unmarked) [Example 16, 2-Methyl-2-{2-[1-propyl-3-(4-trifluoromethoxyphenyl)ureido]indan-5-ylsulfanyl}propionic acid], the “PPARγ FI” value rises from 0.24 to 0.37.

Going from `CCN(C(=O)Nc1ccc(SC(F)(F)F)cc1)C1Cc2ccc(SC(C)(C)C(=O)O)cc2C1` (centres unmarked) [Example 4, 2-{2-[1-Ethyl-3-(4-trifluoromethylsulfanylphenyl)ureido]indan-5-ylsulfanyl}-2-methylpropionic acid] to `CCCCN(C(=O)Nc1ccc(SC(F)(F)F)cc1)C1Cc2ccc(SC(C)(C)C(=O)O)cc2C1` (centres unmarked) [Example 17, 2-Methyl-2-{2-[1-butyl-3-(4-trifluoromethylsulfanylphenyl)ureido]indan-5-ylsulfanyl}propionic acid], the “PPARγ FI” value falls from 3.7 to 0.43.

Going from `CCCCCN(C(=O)Nc1ccc(SC(F)(F)F)cc1)C1Cc2ccc(SC(C)(C)C(=O)O)cc2C1` (centres unmarked) [Example 5, 2-Methyl-2-{2-[1-pentyl-3-(4-trifluoromethylsulfanylphenyl)ureido]indan-5-ylsulfanyl}propionic acid] to `CCCCCCN(C(=O)Nc1ccc(C(C)C)cc1)C1Cc2ccc(SC(C)(C)C(=O)O)cc2C1` (centres unmarked) [Example 13, 2-{2-[3-(4-Isopropylphenyl)-1-hexylureido]indan-5-ylsulfanyl}-2-methylpropionic acid], the “PPARγ FI” value falls from 4.0 to 1.2.

Compared with `CCN(C(=O)Nc1ccc(C(C)C)cc1)C1Cc2ccc(SC(C)(C)C(=O)O)cc2C1` (centres unmarked) [Example 6, 2-{2-[1-Ethyl-3-(4-isopropylphenyl)ureido]indan-5-ylsulfanyl}-2-methylpropionic acid], `CC(C)CCN(C(=O)Nc1ccc(C(C)C)cc1)C1Cc2ccc(SC(C)(C)C(=O)O)cc2C1` (centres unmarked) [Example 21, 2-{2-[3-(4-Isopropylphenyl)-1-(3-methylbutyl)ureido]indan-5-ylsulfanyl}-2-methylpropionic acid] is lower in “PPARγ FI” value: 1.9 for the first, 0.05 for the second.

First: CCCCCN(C(=O)Nc1ccc(-c2ccccc2)cc1)C1Cc2ccc(SC(C)(C)C(=O)O)cc2C1 (centres unmarked) [Example 12, 2-[2-(3-Biphenyl-4-yl-1-pentylureido)indan-5-ylsulfanyl]-2-methylpropionic acid]
Second: CC(C)CCN(C(=O)Nc1ccc(OC(F)(F)F)cc1)C1Cc2ccc(SC(C)(C)C(=O)O)cc2C1 (centres unmarked) [Example 20, 2-Methyl-2-{2-[1-(3-methylbutyl)-3-(4-trifluoromethoxyphenyl)ureido]indan-5-ylsulfanyl}-2-methylpropionic acid]
The “PPARγ FI” value of the first is higher: 11 for the first, 0.44 for the second.

In the case of `CC(C)(Sc1ccc2c(c1)CC(NC(=O)Nc1ccc(OC(F)(F)F)cc1)C2)C(=O)O` (centres unmarked) [Example 18, 2-Methyl-2-{2-[3-(4-trifluoromethoxyphenyl)ureido]indan-5-ylsulfanyl}propionic acid], the “PPARγ FI” value is reported as 0.31.

The compounds below were run against T2, PPARδ (Homo sapiens, UniProt Q03181) (assay: Transfection Assay for PPARδ Receptors (PPAR-Gal4 receptor / Gal4-Luciferase Reporter, HEK293 cells)). Settings: bracketed values.
T2 sequence (Q03181 171-441 limits assumed): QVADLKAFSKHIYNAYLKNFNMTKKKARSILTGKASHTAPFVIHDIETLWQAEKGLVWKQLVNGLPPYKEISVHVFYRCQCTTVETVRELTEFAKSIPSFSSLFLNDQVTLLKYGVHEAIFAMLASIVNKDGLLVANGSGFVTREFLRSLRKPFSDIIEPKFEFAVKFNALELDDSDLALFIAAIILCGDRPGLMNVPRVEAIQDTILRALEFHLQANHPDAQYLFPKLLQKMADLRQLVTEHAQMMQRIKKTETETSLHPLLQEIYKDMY
Assay type: cell-based
Description: Transfection Assay for PPARδ Receptors
HEK293 cells were grown in DMEM/F-12 Media supplemented with 10% FBS and glutamine (GIBCOBRL). The cells were co-transfected with DNA for PPAR-Gal4 receptor and Gal4-Luciferase Reporter using the DMRIE-C Reagent. On the following day, the DNA-containing medium were replaced with 5% Charcoal treated FBS growth medium. After six hours, cells were seeded in 96 well plate and incubated at 37° C. in CO2 incubator overnight. Cells were challenged by test compounds and incubated for 24 hours at 37° C. in 5% CO2 incubator. Luciferase activity was assayed using the Steady-Glo Luciferase Assay Kit from Promega. DMRIE-C Reagent was purchased from GIBCO Cat. No. 10459-014. OPTI-MEM I Reduced Serum Medium was purchased from GIBCO Cat. No. 31985. Steady-Glo Luciferase Assay Kit was obtained from Promega Part# E254B.

Compound `CCN(C(=O)Nc1ccc(C(C)(C)C)cc1)C1CCc2cc(SC(C)(C)C(=O)O)c(OC)cc2C1` (centres unmarked) [Example 49, 2-{6-[3-(4-tert-Butylphenyl)1-ethylureido]-3-methoxy-5,6,7,8-tetrahydronaphthalen-2-ylsulfanyl}-2-methylpropionic acid] has an EC50 of over 3 µM.

Same assay, conditions: fold induction, unbracketed values; PPARδ standard FI = 36.1

First: CCN(C(=O)Nc1ccc(OC(F)(F)F)cc1)C1Cc2ccc(SC(C)(C)C(=O)O)cc2C1 (centres unmarked) [Example 2, 2-{2-[1-Ethyl-3-(4-trifluoromethoxyphenyl)ureido]indan-5-ylsulfanyl}-2-methylpropionic acid]
Second: CCN(C(=O)Nc1cccc(OC(F)(F)F)c1)C1Cc2ccc(SC(C)(C)C(=O)O)cc2C1 (centres unmarked) [Example 26, 2-{2-[1-Ethyl-3-(3-trifluoromethoxyphenyl)ureido]indan-5-ylsulfanyl}-2-methylpropionic acid]
The “PPARδ FI” value of the first is higher: 4.2 for the first, 2.1 for the second.

First: CCCCCN(C(=O)Nc1ccc(SC(F)(F)F)cc1)C1Cc2ccc(SC(C)(C)C(=O)O)cc2C1 (centres unmarked) [Example 5, 2-Methyl-2-{2-[1-pentyl-3-(4-trifluoromethylsulfanylphenyl)ureido]indan-5-ylsulfanyl}propionic acid]
Second: CCCCCCN(C(=O)Nc1ccc(SC(F)(F)F)cc1)C1Cc2ccc(SC(C)(C)C(=O)O)cc2C1 (centres unmarked) [Example 15, 2-Methyl-2-{2-[1-hexyl-3-(4-trifluoromethylsulfanylphenyl)ureido]indan-5-ylsulfanyl}propionic acid]
The “PPARδ FI” value of the first is higher: 2.5 for the first, 1.2 for the second.

Going from `CCN(C(=O)Nc1ccc(C(C)C)cc1)C1Cc2ccc(SC(C)(C)C(=O)O)cc2C1` (centres unmarked) [Example 6, 2-{2-[1-Ethyl-3-(4-isopropylphenyl)ureido]indan-5-ylsulfanyl}-2-methylpropionic acid] to `CCCN(C(=O)Nc1ccc(OC)cc1)C1Cc2ccc(SC(C)(C)C(=O)O)cc2C1` (centres unmarked) [Example 32, 2-{2-[3-(4-Methoxyphenyl)-1-propylureido]indan-5-ylsulfanyl}-2-methylpropionic acid], the “PPARδ FI” value falls from 3.6 to 1.5.

First: C=CCCCN(C(=O)Nc1ccc(OC(F)(F)F)cc1)C1Cc2ccc(SC(C)(C)C(=O)O)cc2C1 (centres unmarked) [Example 19, 2-Methy-2-{2-[1-pent-4-enyl-3-(4-trifluoromethoxyphenyl)ureido]indan-5-ylsulfanyl}propionic acid]
Second: CC(C)(Sc1ccc2c(c1)CC(N(CCCC1CCCC1)C(=O)Nc1ccc(OC(F)(F)F)cc1)C2)C(=O)O (centres unmarked) [Example 28, 2-{2-[1-(3-Cyclopentylpropyl)-3-(4-trifluoromethoxyphenyl)ureido]indan-5-ylsulfanyl}-2-methylpropionic acid]
The “PPARδ FI” value of the first is lower: 1.4 for the first, 8.2 for the second.

First: CCN(C(=O)Nc1ccc(OC(F)(F)F)c(Br)c1)C1Cc2ccc(SC(C)(C)C(=O)O)cc2C1 (centres unmarked) [Example 25, 2-{2-[3-(3-Bromo-4-trifluoromethoxyphenyl)-1-ethylureido]indan-5-ylsulfanyl}-2-methylpropionic acid]
Second: CCCN(C(=O)Nc1ccc(C(F)(F)F)cc1)C1Cc2ccc(SC(C)(C)C(=O)O)cc2C1 (centres unmarked) [Example 35, 2-Methyl-2-{2-[1-propyl-3-(4-trifluoromethylphenyl)ureido]indan-5-ylsulfanyl}-propionic acid]
The “PPARδ FI” value of the first is lower: 4.5 for the first, 5.6 for the second.

Going from `CCCN(C(=O)Nc1cc(C)cc(C)c1)C1Cc2ccc(SC(C)(C)C(=O)O)cc2C1` (centres unmarked) [Example 33, 2-{2-[3-(3,5-Dimethylphenyl)-1-propylureido]indan-5-ylsulfanyl}-2-methylpropionic acid] to `CCCCCN(C(=O)Nc1ccc2ccccc2c1)C1Cc2ccc(SC(C)(C)C(=O)O)cc2C1` (centres unmarked) [Example 39, 2-Methyl-2-[2-(3-naphthalen-2-yl-1-pentylureido)indan-5-ylsulfanyl]propionic acid], the “PPARδ FI” value rises from 0.8 to 9.3.

First: CC(C)(Sc1ccc2c(c1)CC(N(CCCC1CCCC1)C(=O)Nc1ccccc1)C2)C(=O)O (centres unmarked) [Example 37, 2-{2-[1-(3-Cyclopentylpropyl)-3-phenylureido]indan-5-ylsulfanyl}-2-methylpropionic acid]
Second: CCCN(C(=O)Nc1ccc(OC(F)(F)F)cc1)C1CCc2ccc(SC(C)(C)C(=O)O)cc2C1 (centres unmarked) [Example 46, 2-Methyl-2-{7-[1-propyl-3-(4-trifluoromethoxyphenyl)ureido}-5,6,7,8-tetrahydronaphthalen-2-ylsulfanyl}propionic acid]
The “PPARδ FI” value of the first is lower: 1.9 for the first, 6.0 for the second.
